For assay [1], the target named is human glucagon receptor (hGCGR) (Homo sapiens, UniProt P47871). The assay is described as follows: cAMP production (HTRF) in CHO cells expressing hGCGR. The class given is cell-based. The settings on record: Table 6, peptides modified at position 17; cAMP in CHO hGCGR cells; geometric mean; read-out: hGluc-R EC50. Set-up: expressed in transfected cells. Summed up:
(§1)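 Cells were resuspended in assay buffer at batch-optimized density, typically 1×10^5 cells/mL for hGLP-1R and 2×10^5 cells/mL for hGCGR. After 30 min incubation at room temperature with compound, cAMP was measured by two-step HTRF. EC50 values came from 4-parameter logistic fits of % Delta F.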
On the technique in general: cAMP levels reflect the balance of adenylyl cyclase and phosphodiesterase activity.

Assay [2] concerns the target human GLP-1 receptor (hGLP-1R) (Homo sapiens, UniProt P43220). Briefly: cAMP production (HTRF) in CHO cells expressing hGLP-1R. The note with it: for EC50: Table 6, peptides modified at position 17, cAMP in CHO hGLP-1R cells, geometric mean, read-out: hGLP-1R EC50; for % Relative Potency Ratio: Table 6, % GLP-1R activity relative to GLP-1 / % GlucR activity relative to glucagon. Set-up: expressed in transfected cells. The class given is cell-based. Summed up: as §1

A word on the EC50: it is the concentration that produces a half-maximal response.

The structures appear in SMILES notation. Several values for one entry are separate records, joined by “and”; a condition that tells them apart may be missing. Equal entries are not always repeated. Starred links: 1 amine or outer side, 2 acyl side, 3 side chain; linkers in the order of their positions; H or OH if unused. Non-standard residues stand in square brackets, D forms with d. Residues, ends and D or L forms follow the SMILES beside them. Groups on a side chain read outwards from the residue. *: point of attachment. C18 diacid = O=C(O)CCCCCCCCCCCCCCCCC(=O)*; γGlu = O=C(O)[C@H](CCC(=O)[*:2])N[*:1]; αMeF = C[C@](N)(Cc1ccccc1)C(=O)O; AEEA = NCCOCCOCC(=O)O; Aib = CC(C)(N)C(=O)O

Sequence of human GLP-1 receptor (hGLP-1R) (P43220 24-463): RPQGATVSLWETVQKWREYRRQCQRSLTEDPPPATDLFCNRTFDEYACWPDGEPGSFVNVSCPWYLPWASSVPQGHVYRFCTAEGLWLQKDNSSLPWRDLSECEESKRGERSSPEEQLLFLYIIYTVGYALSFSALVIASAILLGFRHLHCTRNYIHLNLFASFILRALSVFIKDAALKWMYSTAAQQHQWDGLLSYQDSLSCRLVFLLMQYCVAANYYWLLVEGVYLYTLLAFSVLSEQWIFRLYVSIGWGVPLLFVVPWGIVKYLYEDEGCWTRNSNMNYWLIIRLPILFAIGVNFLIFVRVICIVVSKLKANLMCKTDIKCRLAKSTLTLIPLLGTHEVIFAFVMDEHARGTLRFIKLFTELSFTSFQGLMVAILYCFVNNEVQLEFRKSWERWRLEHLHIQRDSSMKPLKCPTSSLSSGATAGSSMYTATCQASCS
Sequence of human glucagon receptor (hGCGR) (P47871 26-477): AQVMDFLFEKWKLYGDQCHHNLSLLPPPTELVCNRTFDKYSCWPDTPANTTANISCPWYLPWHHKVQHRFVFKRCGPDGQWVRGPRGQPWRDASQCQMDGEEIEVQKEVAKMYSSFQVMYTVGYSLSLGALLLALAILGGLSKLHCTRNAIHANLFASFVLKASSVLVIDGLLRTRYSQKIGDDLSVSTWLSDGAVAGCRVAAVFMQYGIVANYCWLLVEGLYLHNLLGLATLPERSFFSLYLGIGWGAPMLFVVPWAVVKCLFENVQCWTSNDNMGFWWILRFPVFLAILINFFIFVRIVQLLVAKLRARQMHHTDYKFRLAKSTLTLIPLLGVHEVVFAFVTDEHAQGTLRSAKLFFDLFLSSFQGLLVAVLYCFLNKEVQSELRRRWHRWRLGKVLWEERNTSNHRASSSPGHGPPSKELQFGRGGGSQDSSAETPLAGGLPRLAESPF

Turning to `CC(C)C[C@H](NC(=O)[C@H](Cc1c[nH]c2ccccc12)NC(=O)[C@H](CCCNC(=N)N)NC(=O)[C@@H](NC(=O)[C@H](Cc1ccccc1)NC(=O)[C@H](CC(=O)O)NC(=O)[C@H](CCC(N)=O)NC(=O)[C@H](C)NC(=O)[C@H](CCCNC(=N)N)NC(=O)[C@H](CCCCNC(=O)COCCOCCNC(=O)COCCOCCNC(=O)CC[C@H](NC(=O)CCCCCCCCCCCCCCCCC(=O)O)C(=O)O)NC(=O)[C@H](CO)NC(=O)[C@H](CCC(=O)O)NC(=O)[C@H](CC(C)C)NC(=O)[C@](C)(Cc1ccccc1)NC(=O)[C@H](CCCCN)NC(=O)[C@H](CO)NC(=O)[C@@H](NC(=O)[C@H](CC(=O)O)NC(=O)[C@H](CO)NC(=O)[C@@H](NC(=O)[C@H](Cc1ccccc1)NC(=O)[C@@H](NC(=O)CNC(=O)[C@H](CCC(N)=O)NC(=O)C(C)(C)NC(=O)[C@@H](N)Cc1c[nH]cn1)[C@@H](C)O)[C@@H](C)O)C(C)C)C(C)C)C(=O)N[C@@H](CC(C)C)C(=O)N[C@@H](CCC(=O)O)C(=O)NC(C)(C)C(=O)NCC(=O)O` [Peptide 160] (H-H[Aib]QGTFTSDVSK[αMeF]LESK([AEEA-AEEA-γGlu-C18 diacid])RAQDFVRWLLE[Aib]G-OH), the EC50 in assay [1] was found to be 0.417 nM. In addition, in assay [2], the EC50 stood at 0.0552 nM and the “% Relative Potency Ratio” value was 14.9.

`CC(C)C[C@H](NC(=O)[C@H](Cc1c[nH]c2ccccc12)NC(=O)[C@H](C)NC(=O)[C@@H](NC(=O)[C@H](Cc1ccccc1)NC(=O)[C@H](CC(=O)O)NC(=O)[C@H](CCCNC(=N)N)NC(=O)[C@H](C)NC(=O)[C@H](CCCNC(=N)N)NC(=O)[C@H](CCCCNC(=O)COCCOCCNC(=O)COCCOCCNC(=O)CC[C@H](NC(=O)CCCCCCCCCCCCCCCCC(=O)O)C(=O)O)NC(=O)[C@H](C)NC(=O)[C@H](CCC(=O)O)NC(=O)[C@H](CC(C)C)NC(=O)[C@](C)(Cc1ccccc1)NC(=O)[C@H](CCCCN)NC(=O)[C@H](CO)NC(=O)[C@@H](NC(=O)[C@H](CC(=O)O)NC(=O)[C@H](CO)NC(=O)[C@@H](NC(=O)[C@H](Cc1ccccc1)NC(=O)[C@@H](NC(=O)CNC(=O)[C@H](CCC(N)=O)NC(=O)C(C)(C)NC(=O)[C@@H](N)Cc1c[nH]cn1)[C@@H](C)O)[C@@H](C)O)C(C)C)C(C)C)C(=O)N[C@@H](CC(C)C)C(=O)N[C@@H](CCC(=O)O)C(=O)NC(C)(C)C(=O)NCC(=O)O` [Peptide 161] (H-H[Aib]QGTFTSDVSK[αMeF]LEAK([AEEA-AEEA-γGlu-C18 diacid])RARDFVAWLLE[Aib]G-OH): the EC50 in assay [1] is 0.188 nM and 1.03 nM. In assay [2], the EC50 is 0.0172 nM and 0.0509 nM; the “% Relative Potency Ratio” value is 21.6 and 40.0.

For `CC[C@H](C)[C@H](NC(=O)[C@H](Cc1c[nH]c2ccccc12)NC(=O)[C@H](CCCNC(=N)N)NC(=O)[C@@H](NC(=O)[C@H](Cc1ccccc1)NC(=O)[C@H](CC(=O)O)NC(=O)[C@H](CCC(N)=O)NC(=O)[C@H](C)NC(=O)[C@H](CCCNC(=N)N)NC(=O)[C@H](CCCCNC(=O)COCCOCCNC(=O)COCCOCCNC(=O)CC[C@H](NC(=O)CCCCCCCCCCCCCCCCC(=O)O)C(=O)O)NC(=O)[C@H](CO)NC(=O)[C@H](CC(=O)O)NC(=O)[C@H](CC(C)C)NC(=O)[C@](C)(Cc1ccccc1)NC(=O)[C@H](CCCCN)NC(=O)[C@H](CO)NC(=O)[C@@H](NC(=O)[C@H](CC(=O)O)NC(=O)[C@H](CO)NC(=O)[C@@H](NC(=O)[C@H](Cc1ccccc1)NC(=O)[C@@H](NC(=O)CNC(=O)[C@H](CCC(N)=O)NC(=O)C(C)(C)NC(=O)[C@@H](N)Cc1c[nH]cn1)[C@@H](C)O)[C@@H](C)O)C(C)C)C(C)C)C(=O)N[C@@H](C)C(=O)NC(C)(C)C(=O)N[C@H](C(=O)N[C@@H](CCC(=O)O)C(=O)O)[C@@H](C)O` [Peptide 162] (H-H[Aib]QGTFTSDVSK[αMeF]LDSK([AEEA-AEEA-γGlu-C18 diacid])RAQDFVRWIA[Aib]TE-OH; N-terminus assumed), the EC50 in assay [1] came out at 1.03 nM. For the same compound, in assay [2], the EC50 stood at 0.0596 nM and the “% Relative Potency Ratio” value is reported as 34.1.

As for `CC(C)C[C@H](NC(=O)[C@H](Cc1c[nH]c2ccccc12)NC(=O)[C@H](CCCNC(=N)N)NC(=O)[C@@H](NC(=O)[C@H](Cc1ccccc1)NC(=O)[C@H](CC(=O)O)NC(=O)[C@H](CCC(N)=O)NC(=O)[C@H](C)NC(=O)[C@H](CCCNC(=N)N)NC(=O)[C@H](CCCCNC(=O)COCCOCCNC(=O)COCCOCCNC(=O)CC[C@H](NC(=O)CCCCCCCCCCCCCCCCC(=O)O)C(=O)O)NC(=O)[C@H](CO)NC(=O)[C@H](CC(=O)O)NC(=O)[C@H](CC(C)C)NC(=O)[C@](C)(Cc1ccccc1)NC(=O)[C@H](CCCCN)NC(=O)[C@H](CO)NC(=O)[C@@H](NC(=O)[C@H](CC(=O)O)NC(=O)[C@H](CO)NC(=O)[C@@H](NC(=O)[C@H](Cc1ccccc1)NC(=O)[C@@H](NC(=O)CNC(=O)[C@H](CCC(N)=O)NC(=O)C(C)(C)NC(=O)[C@@H](N)Cc1c[nH]cn1)[C@@H](C)O)[C@@H](C)O)C(C)C)C(C)C)C(=O)N[C@@H](CC(C)C)C(=O)N[C@@H](CCC(=O)O)C(=O)NC(C)(C)C(=O)N[C@@H](C)C(=O)O` [Peptide 163] (H-H[Aib]QGTFTSDVSK[αMeF]LDSK([AEEA-AEEA-γGlu-C18 diacid])RAQDFVRWLLE[Aib]A-OH; N-terminus assumed), the EC50 in assay [1] came out at 0.144 nM. In assay [2], the EC50 was 0.0902 nM and the “% Relative Potency Ratio” value was determined as 3.2.

For the compound `CC(C)C[C@H](NC(=O)[C@H](Cc1c[nH]c2ccccc12)NC(=O)[C@H](CCCNC(=N)N)NC(=O)[C@@H](NC(=O)[C@H](Cc1ccccc1)NC(=O)[C@H](CC(=O)O)NC(=O)[C@H](CCC(N)=O)NC(=O)[C@H](C)NC(=O)[C@H](CCCNC(=N)N)NC(=O)[C@H](CCCCNC(=O)COCCOCCNC(=O)COCCOCCNC(=O)CC[C@H](NC(=O)CCCCCCCCCCCCCCCCC(=O)O)C(=O)O)NC(=O)[C@H](CO)NC(=O)[C@H](CC(=O)O)NC(=O)[C@H](CC(C)C)NC(=O)[C@](C)(Cc1ccccc1)NC(=O)[C@H](CCCCN)NC(=O)[C@H](CO)NC(=O)[C@@H](NC(=O)[C@H](CC(=O)O)NC(=O)[C@H](CO)NC(=O)[C@@H](NC(=O)[C@H](Cc1ccccc1)NC(=O)[C@@H](NC(=O)CNC(=O)[C@H](CCC(N)=O)NC(=O)C(C)(C)NC(=O)[C@@H](N)Cc1c[nH]cn1)[C@@H](C)O)[C@@H](C)O)C(C)C)C(C)C)C(=O)N[C@H](C(=O)NC(C)(C)C(=O)N[C@H](C(=O)N[C@@H](CCC(=O)O)C(=O)O)[C@@H](C)O)C(C)C` [Peptide 165] (H-H[Aib]QGTFTSDVSK[αMeF]LDSK([AEEA-AEEA-γGlu-C18 diacid])RAQDFVRWLV[Aib]TE-OH; N-terminus assumed), the EC50 in assay [1] is 1.03 nM. In assay [2], the EC50 is 0.0509 nM and the “% Relative Potency Ratio” value came out at 40.0.

Regarding `CC(C)C[C@H](NC(=O)[C@H](Cc1c[nH]c2ccccc12)NC(=O)[C@H](CCCNC(=N)N)NC(=O)[C@@H](NC(=O)[C@H](Cc1ccccc1)NC(=O)[C@H](CC(=O)O)NC(=O)[C@H](CCCNC(=N)N)NC(=O)[C@H](C)NC(=O)[C@H](CCCNC(=N)N)NC(=O)[C@H](CCCCNC(=O)COCCOCCNC(=O)COCCOCCNC(=O)CC[C@H](NC(=O)CCCCCCCCCCCCCCCCC(=O)O)C(=O)O)NC(=O)[C@H](CO)NC(=O)[C@H](CC(=O)O)NC(=O)[C@H](CC(C)C)NC(=O)[C@](C)(Cc1ccccc1)NC(=O)[C@H](CCCCN)NC(=O)[C@H](CO)NC(=O)[C@@H](NC(=O)[C@H](CC(=O)O)NC(=O)[C@H](CO)NC(=O)[C@@H](NC(=O)[C@H](Cc1ccccc1)NC(=O)[C@@H](NC(=O)CNC(=O)[C@H](CCC(N)=O)NC(=O)C(C)(C)NC(=O)[C@@H](N)Cc1c[nH]cn1)[C@@H](C)O)[C@@H](C)O)C(C)C)C(C)C)C(=O)N[C@@H](CC(C)C)C(=O)NC(C)(C)C(=O)N[C@H](C(=O)N[C@@H](CCC(=O)O)C(=O)O)[C@@H](C)O` [Peptide 166] (H-H[Aib]QGTFTSDVSK[αMeF]LDSK([AEEA-AEEA-γGlu-C18 diacid])RARDFVRWLL[Aib]TE-OH; N-terminus assumed), the EC50 in assay [1] was 0.27 nM. Moreover, in assay [2], the EC50 is 0.048 nM and the “% Relative Potency Ratio” value came to 11.1.

As to `CC(C)C[C@H](NC(=O)[C@H](Cc1c[nH]c2ccccc12)NC(=O)[C@H](C)NC(=O)[C@@H](NC(=O)[C@H](Cc1ccccc1)NC(=O)[C@H](CC(=O)O)NC(=O)[C@H](CCCNC(=N)N)NC(=O)[C@H](C)NC(=O)[C@H](CCCNC(=N)N)NC(=O)[C@H](CCCCNC(=O)COCCOCCNC(=O)COCCOCCNC(=O)CC[C@H](NC(=O)CCCCCCCCCCCCCCCCC(=O)O)C(=O)O)NC(=O)[C@H](CO)NC(=O)[C@H](CC(=O)O)NC(=O)[C@H](CC(C)C)NC(=O)[C@](C)(Cc1ccccc1)NC(=O)[C@H](CCCCN)NC(=O)[C@H](CO)NC(=O)[C@@H](NC(=O)[C@H](CC(=O)O)NC(=O)[C@H](CO)NC(=O)[C@@H](NC(=O)[C@H](Cc1ccccc1)NC(=O)[C@@H](NC(=O)CNC(=O)[C@H](CCC(N)=O)NC(=O)C(C)(C)NC(=O)[C@@H](N)Cc1c[nH]cn1)[C@@H](C)O)[C@@H](C)O)C(C)C)C(C)C)C(=O)N[C@@H](CC(C)C)C(=O)NC(C)(C)C(=O)N[C@H](C(=O)N[C@@H](CCC(=O)O)C(=O)O)[C@@H](C)O` [Peptide 167] (H-H[Aib]QGTFTSDVSK[αMeF]LDSK([AEEA-AEEA-γGlu-C18 diacid])RARDFVAWLL[Aib]TE-OH; N-terminus assumed), the EC50 in assay [1] came to 0.311 nM. Also, in assay [2], the EC50 came to 0.0768 nM and the “% Relative Potency Ratio” value came to 8.0.

Source of the values: patent US20250353891A1 (MEDIMMUNE LIMITED, priority 2022, published 2025).
